Paper PMC7526454 (JCI Insight, 2020)
Read-outs that look alike come from different tables or passages of the source.

Columns and labels:
[1] = molecular target: T1, human serum albumin (Homo sapiens, UniProt P02768); experiment: Ligand affinity for albumin by albumin-shift cAMP assays (Schild regression); type: in vitro ADME; details: at 640 μM albumin, calculated from KA
T1 construct: For assays containing albumin from human serum; purchased MilliporeSigma A3782; host or cells: human serum
Procedure: Clonal HEK293 cells stably expressing either untagged human GIPR or human GLP-1R at various levels of receptor density were used for measurement of cAMP accumulation using the Gs Dynamic Assay and homogenous time-resolved fluorescence (62AM4PEJ, PerkinElmer). Corning 3570 white microtiter plates were used to collect 10 μL assay medium (DMEM, 31053, [Thermo Fisher Scientific], 2 mM Glutamax [35050, Thermo Fisher Scientific], 20 mM HEPES, 0.1% w/v bovine casein [4765, MilliporeSigma], and 250 μM isobutylmethylxanthine [IBMX] phosphodiesterase inhibitor) from a Multidrop Combi dispenser (Thermo Fisher Scientific). […] Vials of assay-ready cells were rapidly thawed from cryopreservation on the day of the assay. […] Time-resolved fluorescence was quantitated with a Pherastar FSX multilabel reader (BMG Labtech). Fluorescence data were analyzed by the ratio method, calibrated to external standards in a parallel processed plate, and reported as percent activation compared with vehicle minimum and native peptide maximum control wells. […]
Methods to quantify and predict the effect of albumin binding on biological activity in enzyme assays, receptor binding assays, and cell-based assays exist, but they are not currently widely employed ([57]–[59]). The general approach involves performing a bioassay in an albumin-free system and quantifying the effect of systematic titrations of albumin into the system. […]

[2] = steady state plasma total concentration, cited from earlier work

T1 sequence (P02768 25-609): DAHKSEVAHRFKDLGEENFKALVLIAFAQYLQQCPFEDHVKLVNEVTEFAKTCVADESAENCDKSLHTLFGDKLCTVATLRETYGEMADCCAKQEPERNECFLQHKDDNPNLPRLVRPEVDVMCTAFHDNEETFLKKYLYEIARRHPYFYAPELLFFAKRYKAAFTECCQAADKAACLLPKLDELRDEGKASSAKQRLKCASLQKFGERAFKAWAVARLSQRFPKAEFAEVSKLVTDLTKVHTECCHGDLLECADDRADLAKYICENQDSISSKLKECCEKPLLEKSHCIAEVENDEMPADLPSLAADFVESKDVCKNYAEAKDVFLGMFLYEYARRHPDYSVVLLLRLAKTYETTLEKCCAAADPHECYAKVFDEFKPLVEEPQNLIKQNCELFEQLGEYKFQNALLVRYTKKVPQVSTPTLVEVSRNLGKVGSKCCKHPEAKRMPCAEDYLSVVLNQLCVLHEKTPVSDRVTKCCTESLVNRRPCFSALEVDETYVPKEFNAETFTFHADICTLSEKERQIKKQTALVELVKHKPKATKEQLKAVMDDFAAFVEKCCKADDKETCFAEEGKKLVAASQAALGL

SMILES: CC[C@H](C)[C@H](NC(=O)[C@H](Cc1ccccc1)NC(=O)[C@H](CCC(=O)O)NC(=O)[C@H](CCCCNC(=O)COCCOCCNC(=O)COCCOCCNC(=O)CC[C@H](NC(=O)CCCCCCCCCCCCCCCCC(=O)O)C(=O)O)NC(=O)[C@H](C)NC(=O)[C@H](C)NC(=O)[C@H](CCC(N)=O)NC(=O)CNC(=O)[C@H](CCC(=O)O)NC(=O)[C@H](CC(C)C)NC(=O)[C@H](Cc1ccc(O)cc1)NC(=O)[C@H](CO)NC(=O)[C@H](CO)NC(=O)[C@@H](NC(=O)[C@H](CC(=O)O)NC(=O)[C@H](CO)NC(=O)[C@@H](NC(=O)[C@H](Cc1ccccc1)NC(=O)[C@@H](NC(=O)CNC(=O)[C@H](CCC(=O)O)NC(=O)C(C)(C)NC(=O)[C@@H](N)Cc1cnc[nH]1)[C@@H](C)O)[C@@H](C)O)C(C)C)C(=O)N[C@@H](C)C(=O)N[C@@H](Cc1c[nH]c2ccccc12)C(=O)N[C@@H](CC(C)C)C(=O)N[C@H](C(=O)N[C@@H](CCCNC(=N)N)C(=O)NCC(=O)N[C@@H](CCCNC(=N)N)C(=O)NCC(=O)O)C(C)C [Semaglutide, semaglutide]
- predicted unbound fraction [1]: 0.00072
- Css (total) ([2]; semaglutide 0.5 mg clinical dose): 15 nM
- Css (total) ([2]; semaglutide 1 mg clinical dose): 30 nM
